Measurements published in patent US20240010606A1, “FUMARATE DERIVATIVES AND THEIR MEDICAL USE” (Sitryx Therapeutics Limited, priority 2020, published 2024).

Tests used:
IL-1β = experiment: THP-1 AlphaLISA IL-1β cytokine assay; type: cell-based; settings: Homo sapiens, differentiated THP-1 cells
Description: (§1) Biological Example 1—THP-1 AlphaLISA IL-1β and IL-6 Cytokine Assay Measuring Inhibitory Effects on IL-1, and IL-6 Cytokine Output from THP-1s The cytokine inhibition profiles of compounds of formula (I) were determined in a differentiated THP-1 cell assay. All assays were performed in RPMI-1640 growth medium (Gibco), supplemented with 10% fetal bovine serum (FBS; Gibco), 1% penicillin-streptomycin and 1% sodium pyruvate unless specified otherwise. The IL-1β and IL-6 cytokine inhibition assays were each run in a background of differentiated THP-1 cells as described below. All reagents described were from Sigma-Aldrich unless specified otherwise. Compounds were prepared as 10 mM DMSO stocks. THP-1 cells were expanded as a suspension up to 80% confluence in appropriate growth medium. Cells were harvested, suspended, and treated with an appropriate concentration of phorbol 12-myristate 13-acetate (PMA) over a 72 hr period (37° C./5% CO2). Following 72 hrs of THP-1 cell incubation, cellular medium was removed and replaced with fresh growth media containing 1% of FBS. Working concentrations of compounds were prepared separately in 10% FBS treated growth medium and pre-incubated with the cells for 30 minutes (37° C./5% CO2). Following the 30 minute compound pre-incubation, THP-1s were treated with an appropriate concentration of LPS and the THP-1s were subsequently incubated for a 24 hr period (37° C./5% CO2). An appropriate final concentration of Nigericin was then dispensed into the THP-1 plates and incubated for 1 hour (37° C./5% CO2) before THP-1 supernatants were harvested and collected in separate polypropylene 96-well holding plates. Reagents from each of the IL-1β and IL-6 commercial kits (Perkin Elmer) were prepared and run according to the manufacturer's instructions. Subsequently, fluorescence signal detection in a microplate reader was measured (EnVision® Multilabel Reader, Perkin Elmer). Percentage inhibition was calculated per cytokine by normalizing the sample data to the high and low controls used within each plate (+/−LPS respectively). Percentage inhibition was then plotted against compound concentration and the 50% inhibitory concentration (IC50) was determined from the resultant concentration-response curve.

IL-6 = experiment: THP-1 AlphaLISA IL-6 cytokine assay; type: cell-based; settings: Homo sapiens, THP-1, differentiated THP-1 cells
Description: as §1

[1] = Hepatocyte stability assay, human; type: in vitro ADME; settings: cryopreserved hepatocytes, 10 μM compound
Excerpt: (§2) Biological Example 3—Hepatocyte Stability Assay
(§3) Defrosted cryo-preserved hepatocytes (viability >70%) are used to determine the metabolic stability of a compound via calculation of intrinsic clearance (CIint; a measure of the removal of a compound from the liver in the absence of blood flow and cell binding). Clearance data are particularly important for […] as they can be used in combination with in vivo data to predict the half-life and oral bioavailability of a drug.
(§4) The metabolic stability in hepatocytes assay involves a time-dependent reaction using both positive and negative controls. The cells must be pre-incubated at 37° C. then spiked with test compound (and positive control); samples taken at pre-determined time intervals are analysed to monitor the change in concentration of the initial drug compound over 60 minutes. A buffer incubation reaction (with no hepatocytes present) acts as a negative control and two cocktail solutions, containing compounds with known high and low clearance values (verapamil/7-hydroxycoumarin and propranolol/diltiazem), act as positive controls. • 1. The assay is run with a cell concentration of 0.5×10^6 cells/mL in Leibovitz buffer. • 2. All compounds and controls are run in duplicate. • 3. Compound concentration is 10 μM. • 4. All compounds and controls are incubated with both cells and buffer to show turnover is due to hepatic metabolism. • 5. All wells on the incubation plate will have 326.7 μL of either cells or buffer added. • 6. Prior to assay, cell and buffer-only incubation plates are preincubated for 10 mins at 37° C. • 7. The assay is initiated by adding compounds, 3.3 μL of 1 mM in 10% DMSO-90% Buffer; final DMSO concentration is 0.1%. • 8. Samples are taken at regular timepoints (0, 5, 10, 20, 40, 60 min) until 60 mins. • 9. Sample volume is 40 μL and it is added to 160 μL of crash solvent (acetonitrile with internal standard) and stored on ice. • 10. At the end of the assay, the crash plates are centrifuged at 3500 rpm for 20 mins at 4° C. • 11. 80 μL of clear supernatant is removed and mixed with 80 μL of deionised water before being analysed by LC-MS/MS.
(§5) Raw LC-MS/MS data are exported to, and analysed in, Microsoft Excel for determination of intrinsic clearance. The percentage remaining of a compound is monitored using the peak area of the initial concentration as 100%. Intrinsic clearance and half-life values are calculated using a graph of the natural log of percentage remaining versus the time of reaction in minutes. Half-life (min) and intrinsic clearance (CIint in μL min^−1 10^−6 cells) values are calculated using the gradient of the graph (the elimination rate constant, k) and Equations 1 and 2.

hepatocytes [2] = experiment: Hepatocyte stability assay, human; type: in vitro ADME; settings: 10 μM compound
Excerpt: as §2, §3, §4, §5

[3] = Hepatocyte stability assay, mouse; type: in vitro ADME; settings: mouse, cryopreserved hepatocytes, 10 μM compound
Excerpt: as §2, §3, §4, §5

hepatocytes [4] = experiment: Hepatocyte stability assay, mouse; type: in vitro ADME; settings: 10 μM compound
Excerpt: as §2, §3, §4, §5

NRF2 = NRF2 activation assay (DiscoverX PathHunter NRF2 translocation kit, U2OS cells); type: cell-based; settings: Table 4, compounds of formula (II)
Description: Biological Example 2—NRF2 Activation Assay Measuring Compound Activation Effects on the Anti-Inflammatory Transcription Factor NRF2 in DiscoverX PathHunter NRF2 Translocation Kit Potency and efficacy of compounds of formula (I) against the target of interest to activate NRF2 (nuclear factor erythroid 2-related factor 2) were determined using the PathHunter NRF2 translocation kit (DiscoverX). The NRF2 translocation assay was run using an engineered recombinant cell line, utilising enzyme fragment complementation to determine activation of the Keap1-NRF2 protein complex and subsequent translocation of NRF2 into the nucleus. Enzyme activity was quantified using a chemiluminescent substrate consumed following the formation of a functional enzyme upon PK-tagged NRF2 translocation into the nucleus. Additionally, a defined concentration of dimethyl fumarate was used as the ‘High’ control to normalise test compound activation responses to. U2OS PathHunter eXpress cells were thawed from frozen prior to plating. Following plating, U2OS cells were incubated for 24 hrs (37° C./5% CO2) in commercial kit provided cell medium. Following 24 hrs of U2OS incubation, cells were directly treated with an appropriate final concentration of compound. Following compound treatment, the U2OS plates were incubated for a further 6 hours (37° C./5% CO2) before detection reagent from the PathHunter NRF2 commercial kit was prepared and added to test plates according to the manufacturer's instructions. Subsequently, the luminescence signal detection in a microplate reader was measured (PHERAstar®, BMG Labtech). Percentage activation was calculated by normalising the sample data to the high and low controls used within each plate (+/−DMF). Percentage activation/response was then plotted against compound concentration and the 50% activation concentration (EC50) was determined from the plotted concentration-response curve.

[5] = Table 2, compounds of formula (II)

Compound | IC50 (IL-1β; [5]) | IC50 (IL-6; [5]) | half-life at 10 μM ([1]; Table 6, read-out: T½) | CIint (hepatocytes [2]; Table 6) | half-life at 10 μM ([3]; Table 6, read-out: T½) | CIint (hepatocytes [4]; Table 6) | IC50 (IL-1β; LPS then Nigericin, Table 1) | IC50 (IL-6; LPS then Nigericin, Table 1) | half-life at 10 μM ([1]; Table 5, read-out: T½) | CIint (hepatocytes [2]; Table 5) | half-life at 10 μM ([3]; Table 5, read-out: T½) | CIint (hepatocytes [4]; Table 5) | EC50 (NRF2; +GSH) | NRF2 activation Emax (NRF2; +GSH) | EC50 (NRF2; −GSH) | NRF2 activation Emax (NRF2; −GSH)
C[C@H]1C[C@](OC(=O)/C=C/C(=O)O)(c2ccc(C(F)(F)F)cc2)C1 (single isomer, unassigned) [Intermediate 33, (E)-4-((cis)-3-methyl-1-(4-(trifluoromethyl)phenyl)cyclobutoxy)-4-oxobut-2-enoic acid] | < 6 µM | < 6 µM | > 100 min | ++++ (++++ means 5-15) | 30 to 100 min | +++ (+++ means >15-30) |  |  |  |  |  |  |  |  |  | 
O=C(O)/C=C/C(=O)OC(c1ccc(C(F)(F)F)cc1)C(F)(F)F (single isomer, unassigned) [Intermediate 44, (E)-4-oxo-4-(2,2,2-trifluoro-1-(4-(trifluoromethyl)phenyl)ethoxy)but-2-enoic acid] | < 6 µM | < 6 µM | 5 to 29 min | ++ (++ means >30-110) | < 5 min | + (+ means >110-277) |  |  |  |  |  |  |  |  |  | 
O=C(O)CCOC(=O)/C=C/C(=O)OC1(c2ccc(C(F)(F)F)cc2)CCC1 [Example 16, (E)-3-(4-oxo-4-(1-(4-(trifluoromethyl)phenyl)cyclobutoxy)but-2-enoyloxy)propanoic acid] |  |  |  |  |  |  | 2.5 to 6.1 µM | < 2.5 µM | 5 to 29 min | +++ (+++ means 50-149) | < 5 min | + (+ means >277) |  |  |  | 
O=C(O)/C=C/C(=O)OC1CCCCCCC1 [Intermediate 6, (E)-4-(cyclooctyloxy)-4-oxobut-2-enoic acid] | 6 to 30 µM |  | > 100 min | ++++ (++++ means 5-15) | 5 to 29 min | ++ (++ means >30-110) |  |  |  |  |  |  | < 23 µM | ++++ (++++ means >150%) | < 23 µM | ++++ (++++ means >150%)
O=C(O)/C=C/C(=O)OC1CC2(CCC2)C1 [Intermediate 7, (E)-4-oxo-4-(spiro[3.3]heptan-2-yloxy)but-2-enoic acid] | 6 to 30 µM |  | 30 to 100 min | +++ (+++ means >15-30) | 5 to 29 min | ++ (++ means >30-110) |  |  |  |  |  |  | < 23 µM | +++ (+++ means >114-150%) | < 23 µM | ++++ (++++ means >150%)
O=C(O)/C=C/C(=O)OC1CCCCCC1 [Intermediate 8, (E)-4-(cycloheptyloxy)-4-oxobut-2-enoic acid] | 30 to 50 µM |  | 30 to 100 min | +++ (+++ means >15-30) | 30 to 100 min | ++ (++ means >30-110) |  |  |  |  |  |  | 23 to 48.4 µM | +++ (+++ means >114-150%) | < 23 µM | ++++ (++++ means >150%)
O=C(O)/C=C/C(=O)OC1(c2ccc(C(F)(F)F)cc2)CSC1 [Intermediate 17, (E)-4-oxo-4-((3-(4-(trifluoromethyl)phenyl)thietan-3-yl)oxy)but-2-enoic acid] | 6 to 30 µM | 6 to 30 µM | 5 to 29 min | ++ (++ means >30-110) | 5 to 29 min | + (+ means >110-277) |  |  |  |  |  |  |  |  |  | 
O=C(O)/C=C/C(=O)OC1(c2ccc(C(F)(F)F)cc2)COC1 [Intermediate 18, (E)-4-oxo-4-((3-(4-(trifluoromethyl)phenyl)oxetan-3-yl)oxy)but-2-enoic acid] | 6 to 30 µM | 6 to 30 µM | 30 to 100 min | ++ (++ means >30-110) | 30 to 100 min | ++ (++ means >30-110) |  |  |  |  |  |  |  |  |  | 
O=C(O)/C=C/C(=O)OC1(c2cc(F)c(C(F)(F)F)c(F)c2)CCC1 [Intermediate 29, (E)-4-(1-(3,5-difluoro-4-(trifluoromethyl)phenyl)cyclobutoxy)-4-oxobut-2-enoic acid] | < 6 µM | < 6 µM | > 100 min | ++++ (++++ means 5-15) | 30 to 100 min | +++ (+++ means >15-30) |  |  |  |  |  |  |  |  |  | 
O=C(O)/C=C/C(=O)OC1(c2ccc(C(F)(F)F)cc2)CC(F)(F)C1 [Intermediate 32, (E)-4-(3,3-difluoro-1-(4-(trifluoromethyl)phenyl)cyclobutoxy)-4-oxobut-2-enoic acid] | < 6 µM | < 6 µM | 30 to 100 min | +++ (+++ means >15-30) | 30 to 100 min | +++ (+++ means >15-30) |  |  |  |  |  |  |  |  |  | 
O=C(O)/C=C/C(=O)OC1(c2ccc(C(F)(F)F)s2)CCC1 [Intermediate 36, (E)-4-oxo-4-(1-(5-(trifluoromethyl)thiophen-2-yl)cyclobutoxy)but-2-enoic acid] | < 6 µM |  | > 100 min | ++++ (++++ means 5-15) | 30 to 100 min | ++ (++ means >30-110) |  |  |  |  |  |  | < 23 µM | ++ (++ means >87-114%) | < 23 µM | +++ (+++ means >114-150%)
